Assays:
Format in all cases: in vivo
db/db mice = experiment: 5 days PDX treatment of db/db mice with hyperinsulinemic-isoglycemic clamp
Protocol: In order to determine whether these beneficial effects of PDX could be sustained or improved with a prolonged treatment regimen, we administered 2 μg of PDX or vehicle (i.v.) twice daily to 17 week old db/db for 5 days leading up to the clamp experiment (FIGS. 10 and 11).
The hyperinsulinemic-isoglycemic clamp (FIG. 11) is the gold-standard for evaluating insulin stimulated glucose metabolism in viva Animals were fasted around 8 am (t=−300 min), and received a first injection of either PDX (2 μg/mice) or the vehicle (10% Ethanol) at t=−240 min. A second injection was given at time −90 min, after which the clamp procedure per se was started. This procedure consisted of a 90-min tracer equilibration period (t=−90 to 0 min) followed by a 120 min hyperinsulinemic isoglycemic clamp (t=0 to 120 min). A 50 μl blood sample was obtained at t=−90 min to determine radioactive-free plasma activity. A 0.5 μCi bolus of [3-3H]-glucose was given at t=−90 min followed by a 0.033 μCi/min infusion for 90 min (t=−90 to 0 min). At t=−30, -20, -10 and 0 min, blood samples were taken for the assessment of basal glucose and glucose specific activity. The insulin infusion began at t=0 min with a primed-continuous infusion of human insulin (16 mU/kg bolus followed by a 4 mU/kg/min infusion), to achieve plasma insulin concentrations 2.5-fold over basal concentrations. At t=0 min, the [3-3H]-glucose infusion was increased to 0.066 μCi/min for the remainder of the experiment to minimize changes in specific activity from the equilibration period. Isoglycemia was maintained by measuring blood glucose every 10 min starting at t=0 min and infusing 20% glucose as necessary to preserved the blood glucose at basal levels. Blood samples were taken every 10 min from t=90 to 120 min for the determination of glucose specific activity.

IL-6 null (KO) mice = experiment: second paired saline/lipid infusion 2.5 mU/kg/min hyperinsulinemic-euglycemic clamp, IL-6 null mice
Protocol: (§1) For the second paired lipid infusion HIE clamp study, 10 week old male B6.129S2-ll6^tmkopf/J (IL-6 KO) and control C57BL/6J (WT) mice from Jackson Labs were used. Mice from each genetic background were randomly assigned to saline-vehicle, saline-PDX, lipid-vehicle and lipid-PDX groups. The lipid-infusion clamp study was performed as described above, except the clamp was performed with a 2.5 mU·kg^−1·min^−1 insulin infusion as per^29.
(§2) To confirm the involvement of IL-6 in the beneficial effects of PDX we performed a second round of paired lipid infusion hyperinsulinemic-euglycemic clamp studies in IL-6 null (KO) mice alongside wild-type (WT) C57BL/6J control mice. Saline-infused mice treated with PDX were added to the study to ascertain whether PDX also improves glucose metabolism in insulin-sensitive mice. To ensure detection of potential differences between insulin-sensitive saline-infused animals we performed 2.5mU/kg/min rather than 4 mU/kg/min clamps.

[1] = test system: wild-type (WT) C57BL/6J control mice; experiment: second paired saline/lipid infusion 2.5 mU/kg/min hyperinsulinemic-euglycemic clamp, wild-type mice
Protocol: as §1, §2

[2] = saline and lipid-infused KO mice
[3] = saline and lipid-infused WT mice, P<0.05

In the case of `CC/C=C\C[C@H](O)/C=C/C=C\C=C\[C@@H](O)C/C=C\C/C=C\CCC(=O)O` [PDX, 10S,17S-dihydroxy-docosa-4Z,7Z,11E,13Z,15E,19Z-hexaeonic acid], the total body weight (db/db mice; 2 μg PDX i.v. twice daily for 5 days vs vehicle) is reported as “no significant changes”, the “IL6 levels in eWAT” value (db/db mice; 5 day PDX treatment) is reported as “no such increase” and the fasting blood glucose (db/db mice; 5 day PDX treatment) is reported as “not affected”. The “plasma IL-6” value (db/db mice; 5 day PDX treatment) was “trend for increased”, the plasmatic insulin levels (db/db mice; 5 day PDX treatment) was “not affected” and the “cytokines content in the eWAT” value (db/db mice; PDX-treated vs vehicle-treated) was “no difference”. For the same compound, the “insulin sensitivity (glucose infusion rate, GIR)” value (db/db mice; after the 5 days PDX treatment) was “clear improvement”, the “weight of tissues (iWAT, eWAT, liver, gastrocnemius, pancreas)” value (db/db mice; end of the 5 days treatment) was “No significant changes” and the “skeletal muscle IL-6” value (db/db mice; gastrocnemius, P<0.05) was “elevated”. The “activation of hepatic STAT-3” value (IL-6 null (KO) mice; KO mice, saline and lipid-infused) was “completely absent”, the “lipid-induced elevations in circulating TNFa” value (IL-6 null (KO) mice; lipid-infused IL-6 KO mice, P<0.001) was “potently suppress” and the “effect on hepatic insulin action” value (IL-6 null (KO) mice; lipid-infused KO mice) was “only partially lost”. For the same compound, the “effect on peripheral insulin action” value (IL-6 null (KO) mice; lipid-infused KO mice) was “completely absent”, the “effects on suppression of Ppargc1, Pck1 and G6Pc” value (IL-6 null (KO) mice; lipid-infused KO mice) was “entirely absent” and the “stimulatory effect on AMPK phosphorylation (muscle)” value (IL-6 null (KO) mice; lipid-infused KO mice) was “fully maintained”. The “IL-6 in skeletal muscle” value (IL-6 null (KO) mice; [2]) was “failed to raise”, the “effect on pre-clamp glycemia” value (IL-6 null (KO) mice; [2]) was “completely absent” and the “enhancement of GIR” value (IL-6 null (KO) mice; [2]) was “this was not the case”. The “effect on hepatic insulin action” value (IL-6 null (KO) mice; saline-infused KO mice) was “completely absent”, the “effect on transcriptional repression of PEPCK” value (IL-6 null (KO) mice; saline-infused KO mice) was “completely absent” and the “improved suppression of G6Pc” value (IL-6 null (KO) mice; saline-infused KO mice) was “this was not the case”. For the same compound, the Akt phosphorylation ([1]; insulin sensitive saline infused mice) was “without raising”, the hepatic insulin action ([1]; lipid-infused WT mice, P<0.001) was “improved” and the “suppression of Ppargc1, Pck1 and G6Pc (liver mRNA)” value ([1]; lipid-infused WT mice, P<0.01, P<0.05, p<0.001) was “significantly improved the suppression”. The peripheral insulin action ([1]; lipid-infused WT mice, P<0.05) was “improved”, the GIR [1, 3] was “significantly enhanced” and the pre-clamp glycemia [1, 3] was “significant fall”. For the same compound, the “transcriptional repression of PEPCK (liver)” value ([1]; saline-infused WT mice, P<0.01) was “additive effect”, the hepatic insulin action ([1]; saline-infused WT mice, P<0.05) was “superior hepatic insulin action” and the “suppression of G6Pc (liver)” value ([1]; saline-infused WT mice, P=0.0614) was “tended to improve”. For the same compound, the peripheral glucose disposal ([1]; saline-infused mice) was “did not increase” and the “suppression of PGC-1α (liver mRNA)” value ([1]; saline-infused mice) was “not associated with further suppression”.
